Values quoted from earlier work, collected in paper PMC12304798 (British Journal of Clinical Pharmacology, 2025).
Read-outs that look alike come from different tables or passages of the source.

Columns and labels:
NE activity [1] = tested on: NE activity
[2] = healthy Japanese and Caucasian volunteers
NE activity [3] = conditions: once-daily doses, healthy volunteers

skin exfoliation, share of volunteers [2] [%] | SMILES | inhibitory effect on NE activity (NE activity [1]; brensocatib 10 mg) [%] | inhibitory effect on NE activity (NE activity [1]; brensocatib 25 mg) [%] | reduction in NE activity (NE activity [3])
10 | Cn1c(=O)oc2ccc(-c3ccc(C[C@@H](C#N)NC(=O)[C@@H]4CNCCCO4)cc3)cc21 [brensocatib] | 30 | 49 | 
 | CC[C@@H](/C=C/C(=O)N1CCc2ccccc21)NC(=O)C1(N)CCOCC1 [GSK2793660] |  |  | approximately 20%
